From article PMC2948407 (Journal of the American Chemical Society, 2010)

Biological target: T1, HasAp (Pseudomonas aeruginosa, UniProt O69756, H32A)
T1 sequence (O69756 1-184 H32A): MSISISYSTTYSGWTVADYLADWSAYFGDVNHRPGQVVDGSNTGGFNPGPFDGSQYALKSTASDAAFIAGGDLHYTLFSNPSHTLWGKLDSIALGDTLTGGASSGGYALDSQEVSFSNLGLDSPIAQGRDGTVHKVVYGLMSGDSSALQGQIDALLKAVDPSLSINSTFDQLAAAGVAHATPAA
Assay: UV-vis titration
Format: binding

## c1c[nH]cn1 [imidazole]
  Kd: 4.7 mM
